According to publication PMC4990313, “Biocatalytic Asymmetric Alkene Reduction: Crystal Structure and Characterization of a Double Bond Reductase from Nicotiana tabacum” (ACS Catalysis, 2013):

What was measured:
[1] = molecular target: T1, NtDBR (double bond reductase) (Nicotiana tabacum, UniProt Q9SLN8); experiment: steady-state kinetics, NADPH oxidation; biotransformation with GC; format: biochemical
T1 construct: gene DBR; full-length, C-terminal His6-tag

[2] = molecular target: T1, NtDBR (double bond reductase); experiment: X-ray crystal structure (ternary complex, soak); some reduction in biotransformation; format: binding
[3] = molecular target: T1, NtDBR (double bond reductase); experiment: X-ray crystal structure (ternary complex, soak); format: binding
[4] = molecular target: T1, NtDBR (double bond reductase); experiment: steady-state kinetics, NADPH oxidation; kcat/Km at pH […]; format: biochemical
[5] = molecular target: T1, NtDBR (double bond reductase); experiment: X-ray crystal structure (binary complex, NADPH soak); steady-state kinetics; format: binding
[6] = molecular target: T1, NtDBR (double bond reductase); experiment: steady-state kinetics, NADPH oxidation; rate at pH […]; format: biochemical
[7] = molecular target: T1, NtDBR (double bond reductase); experiment: steady-state kinetics, NADPH oxidation; substrate inhibition at pH […]; format: biochemical

T1 sequence (Q9SLN8 whole entry): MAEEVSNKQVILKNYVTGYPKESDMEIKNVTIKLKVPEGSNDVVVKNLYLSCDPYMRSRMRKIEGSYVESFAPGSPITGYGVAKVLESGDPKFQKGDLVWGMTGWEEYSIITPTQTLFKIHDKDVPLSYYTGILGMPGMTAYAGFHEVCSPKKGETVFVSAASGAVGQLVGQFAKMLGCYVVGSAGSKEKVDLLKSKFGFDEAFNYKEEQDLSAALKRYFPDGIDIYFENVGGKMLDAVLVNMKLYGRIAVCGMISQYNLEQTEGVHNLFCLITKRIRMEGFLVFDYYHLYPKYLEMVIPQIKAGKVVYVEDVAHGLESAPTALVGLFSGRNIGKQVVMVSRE

O=[N+]([O-])C1=CCCCC1 [1a, 1-nitrocyclohexene]
steady-state kinetics, NADPH oxidation; biotransformation with GC [1]: NtDBR shows a high preference for 1-nitrocyclohexene (1a) over typical LTD alkenal/one substrates

COc1cc(C=CC=O)ccc1O [9a, 4-hydroxy-3-methoxycinnamaldehyde]
X-ray crystal structure (ternary complex, soak); some reduction in biotransforma [2]: have modeled in HMCA because this was the compound soaked into the crystals

NC(=O)c1ccc[n+]([C@@H]2O[C@H](COP(=O)(O)OP(=O)(O)OC[C@H]3O[C@@H](n4cnc5c(N)ncnc54)[C@H](OP(=O)(O)O)[C@@H]3O)[C@@H](O)[C@H]2O)c1 [NADP^+]
X-ray crystal structure (ternary complex, soak) [3]: showed clear |Fo| – |Fc| electron density for the presence of NADP^+ and a second ligand in subunit A only

O=C/C=C/c1ccccc1 [6a, trans-cinnamaldehyde]
steady-state kinetics, NADPH oxidation; kcat/Km at pH 5.4 [4]: 2.8

NC(=O)C1=CN([C@@H]2O[C@H](COP(=O)(O)OP(=O)(O)OC[C@H]3O[C@@H](n4cnc5c(N)ncnc54)[C@H](OP(=O)(O)O)[C@@H]3O)[C@@H](O)[C@H]2O)C=CC1 [NADPH]
X-ray crystal structure (binary complex, NADPH soak); steady-state kinetics [5]: Both the binary and ternary crystal structures showed clear |Fo| – |Fc| electron density for the NADP(H)

C=CC(=O)CCCCC [5a, 1-octen-3-one]
steady-state kinetics, NADPH oxidation; rate at pH 7.3 [6]: 0.52 ± 0.03 s^–1

CCCCCC/C=C/C=O [4a, trans-2-nonenal]
steady-state kinetics, NADPH oxidation; rate at pH 7.3 [6]: 0.87 ± 0.07 s^–1

CCC=C(C)C=O [2a, 2-methylpentenal]
Ki [7]: 2600 ± 600 µM
